This is an account of results in paper PMC2365111, “Cytotoxicity of Poly(Phenolic)Sulfonates and Their Sodium Salts in L1210 Lymphoid Leukemia Cells” (Metal-Based Drugs, 1998).

The subject of assay [1] is colorectal adenocarcinoma SW480. The experiment in a line: Cytotoxicity, SW480 growth. In kind it is cell-based, human. The source says: CYTOTOXlCITY OF POLY(PHENOLIC)SULFONATES AND THEIR SODIUM SALTS IN L1210 LYMPHOID LEUKEMIA CELLS Fei Wang, Amy E. Warren, Cheryl R. Barnes and Iris H. Hall* Division of Medicinal Chemistry and Natural Products University of North Carolina Chapel Hill, N.C. […] Because ofthese properties it was surmised that these poly(phenolic)sulfonated compounds may have antineoplastic activity. METHODS Source of Compounds Test compounds were supplied by GeneLabs, Inc. [Redwood City, CA [Table 1]. Radioisotopes were obtained from New England Nuclear [Dupont, Boston, MA]. Substrates and co-factors were purchased om Sigma Chemical Co., [St Louis, MO]. Pentosan sulfate and other antineoplastic standards were obtained from Sigma Chemical Co. Tumor lines were obtained from American Type Culture Collection [Rockville, MD]. 147 Vol. 5, No. 3, 1998 Cytotoxicity ofSodium Poly(Phenolic)Sulfonates in L1210 Lymphoid Leukemia Cells Table 1 Structures of Poly(phenolic)sulfonate Compounds O2R" n Compound R' R" n MW # G1-2041 H OH 8 1489.46 G1-2029 H OH 6 1117.09 G1-2030 H OH 4 744.73 GI-2021 CH3 ONa 8 1777.5 G1-2057 CH3 ONa 4 888.75 GI-2158 CH3 ONa 6 1333.13 GI-2063 OCH3 ONa 8 2001.65 G1-2042 OAc ONa 8 2017.73 Cytotoxicity Poly(phenolic)sulfonates were tested for cytotoxic activity by homogenizing drug in 0.05% Tween 80/H20 to give a mg/ml stock concentration. These solutions were sterilized by passing them through an acrodisc ([…]). The following cell lines were maintained by literature techniques: murine L1210 lymphoid leukemia, P-388 lymphocytic leukemia, rat UMR 106 osteosarcoma, human Tmolt3 acute lymphoblastic T cell leukemia, HUT-8 lymphoma, HeLa-S suspended cervical carcinoma, HeLa solid cervical carcinoma, KB epidermoid nasopharynx, A431 epidermoid carcinoma, colorectal adenocarcinoma SW480, HCT-8 ileocecal adenocarcinoma, lung bronchogenic MB-9812, A549 lung carcinoma, and glioma HS683. […] Cell numbers were determined by the trypan blue exclusion technique. Solid tumor cytotoxicity was determined by Leibovitz et al. 's method utilizing crystal violeeOH and read at 562 nm (Molecular Devices). Values for cytotoxicity were expressed as EDs0 g/ml, i.e. the concentration ofthe compound inhibiting 50% ofcell growth. […] Incorporation of 4C- formate (53.0 mCi/mmol) into pyrimidines was determined by the method of Christopherson et al.[13]. […] DNA polymerase Ot activity was determined in cytoplasmic extracts isolated by Eichler et aL's method. […] Messenger-, ribosomal- and transfer-RNA polymerase enzymes were isolated with different concentrations of ammonium sulfate; individual RNA polymerase activities were determined using 3H -UTP 16,17]. Ribonucleoside reductase activity was measured using 4C -CDP with dithioerythritol. […]

The subject of assay [2] is KB epidermoid nasopharynx. The experiment in a line: Cytotoxicity, KB growth. Format: cell-based, human. As to conditions: concentration inhibiting 50% of cell growth. The source says:
(§1) CYTOTOXlCITY OF POLY(PHENOLIC)SULFONATES AND THEIR SODIUM SALTS IN L1210 LYMPHOID LEUKEMIA CELLS Fei Wang, Amy E. Warren, Cheryl R. Barnes and Iris H. Hall* Division of Medicinal Chemistry and Natural Products University of North Carolina Chapel Hill, N.C. […] Because ofthese properties it was surmised that these poly(phenolic)sulfonated compounds may have antineoplastic activity. METHODS Source of Compounds Test compounds were supplied by GeneLabs, Inc. [Redwood City, CA [Table 1]. Radioisotopes were obtained from New England Nuclear [Dupont, Boston, MA]. Substrates and co-factors were purchased om Sigma Chemical Co., [St Louis, MO]. Pentosan sulfate and other antineoplastic standards were obtained from Sigma Chemical Co. Tumor lines were obtained from American Type Culture Collection [Rockville, MD]. […] Cell numbers were determined by the trypan blue exclusion technique. Solid tumor cytotoxicity was determined by Leibovitz et al. 's method utilizing crystal violeeOH and read at 562 nm (Molecular Devices). Values for cytotoxicity were expressed as EDs0 g/ml, i.e. the concentration ofthe compound inhibiting 50% ofcell growth. […] Incorporation of 4C- formate (53.0 mCi/mmol) into pyrimidines was determined by the method of Christopherson et al.[13]. […] DNA polymerase Ot activity was determined in cytoplasmic extracts isolated by Eichler et aL's method. […] Messenger-, ribosomal- and transfer-RNA polymerase enzymes were isolated with different concentrations of ammonium sulfate; individual RNA polymerase activities were determined using 3H -UTP 16,17]. Ribonucleoside reductase activity was measured using 4C -CDP with dithioerythritol. […]

Assay [3] relates to HeLa cells. More on the design: method as in ref 38. Conditions: HeLa cells ref 38; cited from earlier work.
In assay [4] the test system is DC-3F. Set-up: method as in ref 41. As to conditions: cited from earlier work.
Assay [5] has as its target DNA polymerase. More on the design: method as in ref 40. Conditions: non-competitively; enzyme name lost ref 40; read-out: inhibition of second DNA polymerase activity; cited from earlier work.
Assay [6] relates to SV40 replication. Set-up: method as in ref 38. As to conditions: in HeLa cells ref 38; cited from earlier work.
The subject of assay [7] is DC-3F/9-OH-E (resistant 9-hydroellipticine subline). More on the design: method as in ref 41. As to conditions: cited from earlier work.
Assay [8] deals with DNA polymerase α. More on the design: method as in ref 40. Conditions: non-competitively ref 40; read-out: inhibition of DNA polymerase α activity; cited from earlier work.
Assay [9] concerns Rauscher leukemic virus, Moloney murine sarcoma virus and avian myeloblastosis reverse transcriptase. Conditions: cited from earlier work.
Assay [10] deals with murine L1210 lymphoid leukemia. Format: cell-based, mouse. As to conditions: concentration inhibiting 50% of cell growth. The source says: CYTOTOXlCITY OF POLY(PHENOLIC)SULFONATES AND THEIR SODIUM SALTS IN L1210 LYMPHOID LEUKEMIA CELLS Fei Wang, Amy E. Warren, Cheryl R. Barnes and Iris H. Hall* Division of Medicinal Chemistry and Natural Products University of North Carolina Chapel Hill, N.C. […] Because ofthese properties it was surmised that these poly(phenolic)sulfonated compounds may have antineoplastic activity. METHODS Source of Compounds Test compounds were supplied by GeneLabs, Inc. [Redwood City, CA [Table 1]. Radioisotopes were obtained from New England Nuclear [Dupont, Boston, MA]. Substrates and co-factors were purchased om Sigma Chemical Co., [St Louis, MO]. Pentosan sulfate and other antineoplastic standards were obtained from Sigma Chemical Co. Tumor lines were obtained from American Type Culture Collection [Rockville, MD]. 147 Vol. 5, No. 3, 1998 Cytotoxicity ofSodium Poly(Phenolic)Sulfonates in L1210 Lymphoid Leukemia Cells Table 1 Structures of Poly(phenolic)sulfonate Compounds O2R" n Compound R' R" n MW # G1-2041 H OH 8 1489.46 G1-2029 H OH 6 1117.09 G1-2030 H OH 4 744.73 GI-2021 CH3 ONa 8 1777.5 G1-2057 CH3 ONa 4 888.75 GI-2158 CH3 ONa 6 1333.13 GI-2063 OCH3 ONa 8 2001.65 G1-2042 OAc ONa 8 2017.73 Cytotoxicity Poly(phenolic)sulfonates were tested for cytotoxic activity by homogenizing drug in 0.05% Tween 80/H20 to give a mg/ml stock concentration. These solutions were sterilized by passing them through an acrodisc ([…]). The following cell lines were maintained by literature techniques: murine L1210 lymphoid leukemia, P-388 lymphocytic leukemia, rat UMR 106 osteosarcoma, human Tmolt3 acute lymphoblastic T cell leukemia, HUT-8 lymphoma, HeLa-S suspended cervical carcinoma, HeLa solid cervical carcinoma, KB epidermoid nasopharynx, A431 epidermoid carcinoma, colorectal adenocarcinoma SW480, HCT-8 ileocecal adenocarcinoma, lung bronchogenic MB-9812, A549 lung carcinoma, and glioma HS683. Geran et al.'s protocol was used to assess the cytotoxicity of the compounds and standards in each cell line. Cell numbers were determined by the trypan blue exclusion technique. Solid tumor cytotoxicity was determined by Leibovitz et al. 's method utilizing crystal violeeOH and read at 562 nm (Molecular Devices). Values for cytotoxicity were expressed as EDs0 g/ml, i.e. the concentration ofthe compound inhibiting 50% ofcell growth. A value of less than 4 µg/ml was required for significant activity ofgrowth inhibition. Incorporation Studies Incorporation of labeled precursors into 3H-DNA, 3H -RNA and 3H -protein for 10 L1210 cells was obtained. The concentration response for inhibition of DNA, RNA and protein synthesis of the compounds at 25, 50 and 100 l.tM was determined for 60 min incubations. Incorporation of 14C -glycine (53.0 mCi/mmol) into purines was obtained by the method of Cadman et al.[12]. Incorporation of 4C- formate (53.0 mCi/mmol) into pyrimidines was determined by the method of Christopherson et al.[13]. Enzyme Assays Inhibition of various enzyme activities was performed by first preparing the appropriate L1210 cell homogenates or subcellular fractions, then adding the drug to be tested during the enzyme assay. For the concentration response studies, inhibition of enzyme activity was determined at 25, 50 and 100 l.tM of compounds G1-2021, G1-2029, GI-2041 and G1-2063 after 60 min incubations. DNA polymerase Ot activity was determined in cytoplasmic extracts isolated by Eichler et aL's method. The DNA polymerase assay was described by Sedwick et al.[15] using 3H-TTP. Messenger-, ribosomal- and transfer-RNA polymerase enzymes were isolated with different concentrations of ammonium sulfate; individual RNA polymerase activities were determined using 3H -UTP 16,17]. Ribonucleoside reductase activity was measured using 4C -CDP with dithioerythritol. The deoxyribonucleotides 4C -dCDP were separated from the ribonucleotides by TLC on PEI plates. […]

Assay [11] deals with HeLa-S suspended cervical carcinoma. The experiment in a line: Cytotoxicity, HeLa-S3 growth. In kind it is cell-based, human. Conditions: concentration inhibiting 50% of cell growth.
From the text: as §1, with “MO].” for “MO]. Pentosan sulfate and other antineoplastic standards were obtained from Sigma Chemical Co. Tumor lines were obtained from American Type Culture Collection [Rockville, MD].”, “16,17].” for “16,17]. Ribonucleoside reductase activity was measured using 4C -CDP with dithioerythritol.”

Assay [12] deals with human Tmolt3 acute lymphoblastic T cell leukemia. The experiment in a line: Cytotoxicity, Tmolt3 growth. Format: cell-based. Conditions: concentration inhibiting 50% of cell growth.
From the text: as §1, with “MO].” for “MO]. Pentosan sulfate and other antineoplastic standards were obtained from Sigma Chemical Co. Tumor lines were obtained from American Type Culture Collection [Rockville, MD].”, “16,17].” for “16,17]. Ribonucleoside reductase activity was measured using 4C -CDP with dithioerythritol.”

Assay [13] deals with lung bronchogenic MB-9812. The experiment in a line: Cytotoxicity, MB-9812 growth. Format: cell-based, human.
From the text: as §1, with “MO].” for “MO]. Pentosan sulfate and other antineoplastic standards were obtained from Sigma Chemical Co. Tumor lines were obtained from American Type Culture Collection [Rockville, MD].”, “16,17].” for “16,17]. Ribonucleoside reductase activity was measured using 4C -CDP with dithioerythritol.”

For the compound `O=S(=O)(O)c1cc2c(O)c(c1)Cc1cc(S(=O)(=O)O)cc(c1O)Cc1cc(S(=O)(=O)O)cc(c1O)Cc1cc(S(=O)(=O)O)cc(c1O)C2` [GI-2030], the “activity, in words” value in assay [1] is reported as “active”. For the same compound, in assay [1] (concentration inhibiting 50% of cell growth), the ED50 entry is on record as “less than 2 μg/ml”.

As for `COc1c2cc(S(=O)(=O)[O-])cc1Cc1cc(S(=O)(=O)[O-])cc(c1OC)Cc1cc(S(=O)(=O)[O-])cc(c1OC)Cc1cc(S(=O)(=O)[O-])cc(c1OC)Cc1cc(S(=O)(=O)[O-])cc(c1OC)Cc1cc(S(=O)(=O)[O-])cc(c1OC)C2.[Na+].[Na+].[Na+].[Na+].[Na+].[Na+]` [GI-2158], the ED50 in assay [2] is 3.24 µg/mL.

In the case of `Cc1ccc(C(=O)Nc2ccc(S(=O)(=O)O)c3cc(S(=O)(=O)O)cc(S(=O)(=O)O)c23)cc1NC(=O)c1cccc(NC(=O)Nc2cccc(C(=O)Nc3cc(C(=O)Nc4ccc(S(=O)(=O)O)c5cc(S(=O)(=O)O)cc(S(=O)(=O)O)c45)ccc3C)c2)c1` [suramin], the “concentration required to cause death” value in [3] was 250 µg/mL. Besides, the values for the ED50 in [4] and in assay [7] were 31 µM and 203 µM, respectively. Moreover, the IC50 is 36 µM in assay [5] and 8 µM in assay [8]. Also, the “concentration required to inhibit SV40 replication” value in assay [6] is 40 µM. Moreover, in [9], the “concentration inhibiting reverse transcriptase activities” value was 0.1 µg/mL.

Take pentosan sulfate [reference compound]: the ED50 in [10], in assay [11] and in assay [12] was less than 3 µg/mL in each case. The “growth suppression, in words” value in assay [13] is recorded as “suppressed moderately”.
